Usually pIC50 stands for −log10 of the IC50, conventionally taken in molar units. Usually Km stands for the substrate concentration at which the rate is half of its maximum.

These results are taken from patent publication US20050266469A1, “Alternatively spliced isoforms of checkpoint kinase 1 (CHK1)” (priority 2004, published 2005).

pIC50: −log10 of the molar value. Like-named read-outs stand apart in the source and are kept apart here.

The target in one assay is T1, CHK1sv1 (Homo sapiens, UniProt O14757).
T1 construct: made in house; host or cells: SF9 insect cells (baculovirus, pVL1393 transfer vector)
T1 sequence (O14757 with tags, fused parts or gaps): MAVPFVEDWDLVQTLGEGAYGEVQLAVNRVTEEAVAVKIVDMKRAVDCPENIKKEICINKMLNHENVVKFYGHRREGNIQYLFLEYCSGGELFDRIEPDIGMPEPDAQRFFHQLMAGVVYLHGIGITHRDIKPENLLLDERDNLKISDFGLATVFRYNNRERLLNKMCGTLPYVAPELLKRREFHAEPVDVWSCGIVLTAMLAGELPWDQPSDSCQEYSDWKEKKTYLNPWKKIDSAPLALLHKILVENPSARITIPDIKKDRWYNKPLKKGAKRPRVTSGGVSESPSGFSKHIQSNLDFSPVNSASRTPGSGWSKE
Put plainly: CHK1sv1 kinase assay (Homogenous Time-Resolved Fluorescence, synthetic peptide substrate). The assay is classed as biochemical. As to the method:
CHK1sv1 activity was assayed in vitro using a synthetic peptide substrate. The phophopeptide product was quantitated using a Homogenous Time-Resolved Fluorescence assay system (Park et al., 1999, Anal. Biochem. 269:94-104). The reaction mixture contained 40 mM HEPES, pH 7.3; 100 mM NaCl; 10 mM MgCl2; 2 mM dithiothreitol; 0.1% BSA; 0.1 mM ATP; 0.5 μM peptide substrate; and 0.1 nM CHK1sv1 enzyme in a final volume of 40 μl. […] The kinase reaction was incubated for 30 minutes at 22° C., and then terminated with 60 μl Stop/Detection Buffer (40 mM HEPES, pH 7.3; 10 mM EDTA; 0.125% Triton X-100; 1.25% BSA; 250 nM PhycoLink Streptavidin-Allophycocyanin (APC) Conjugate (Prozyme, San Leandro, Calif.); and […] Europium-chelate labeled anti-phosphotyrosine antibody (PY20, Perkin Elmer, Boston, Mass.)). The reaction was allowed to equilibrate for 2 hours at 22° C., and relative fluorescent units were read on a Discovery plate reader (Packard Biosciences). ATP Km was determined by varying ATP concentration from 0.003 to 3 mM in the reaction described above and determining the relative enzymatic rates. […] CHK1sv1 Vmax was calculated by determining the amount of phospho-peptide product formed per microgram of CHKsv1 when both ATP and CDC25C peptide substrate are at saturating concentrations.

In the next assay the target is T2, reference CHK1 (Homo sapiens, UniProt O14757).
T2 sequence (O14757 1-476): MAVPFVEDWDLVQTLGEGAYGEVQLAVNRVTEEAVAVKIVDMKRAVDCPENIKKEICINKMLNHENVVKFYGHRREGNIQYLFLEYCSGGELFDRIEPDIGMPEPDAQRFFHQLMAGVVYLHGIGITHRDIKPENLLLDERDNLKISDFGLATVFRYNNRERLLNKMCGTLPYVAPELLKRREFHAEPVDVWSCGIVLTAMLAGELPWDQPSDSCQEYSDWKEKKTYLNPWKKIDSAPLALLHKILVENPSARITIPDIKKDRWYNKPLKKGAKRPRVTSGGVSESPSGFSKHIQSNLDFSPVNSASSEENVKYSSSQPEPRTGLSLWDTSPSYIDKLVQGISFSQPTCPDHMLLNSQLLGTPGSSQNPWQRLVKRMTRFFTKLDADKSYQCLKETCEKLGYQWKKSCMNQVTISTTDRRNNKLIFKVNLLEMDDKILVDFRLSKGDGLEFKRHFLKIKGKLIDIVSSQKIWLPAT
Particulars: cited from earlier work.

[1] abbreviates: read-out: CHK1sv1 inhibition by derivatives of staurosporin, IC50 values, CHK1sv1 enzyme 0.1 nM, 0.1 mM ATP, 0.5 μM peptide substrate, 30 minutes at 22° C.

Compound `CN(C)C[C@H]1CCn2c(c(C3=C(c4cn(C)c5ccccc45)C(=O)NC3=O)c3ccccc32)C1` [RO-320432] showed a pIC50 at CHK1sv1 (CHK1sv1 enzyme 0.1 nM, 0.1 mM ATP, 0.5 μM peptide substrate, 30 minutes at 22° C.) of 6.41.

As to `Cn1cc(C2=C(c3cn(CCCN)c4ccccc34)C(=O)NC2=O)c2ccccc21` [RO317549], the negative-log IC50 (pIC50) on CHK1sv1 (setting [1]) is 6.90.

Turning to `Cn1c2ccccc2c2c3c(c4c5ccccc5n(CCC#N)c4c21)CNC3=O` [Gö6976], the pIC50 on CHK1sv1 (setting [1]) was 9.12; on reference CHK1 (previously published (Davies et al., 2000), read-out: IC50 value for the reference CHK1 inhibited by Gö6976) it was 8.52.

In turn, `COC(=O)[C@@]1(O)C[C@H]2O[C@]1(C)n1c3ccccc3c3c4c(c5c6ccccc6n2c5c31)C(=O)NC4` [K252A] gave a pIC50 at CHK1sv1 of 7.30.

For “CDC25C substrate: peptide derived from the known CHK1 kinase substrate CDC25C, GLYRSPSMPENLNR (SynPep) (listed as Homo sapiens)”, the Km was 120 µM in the assay with CHK1sv1 (CDC25C-derived peptide varied from 0.0003 to 1 mM) and 12 µM in the assay with reference CHK1 (previously described (O'Neill et al., 2002; Jackson et al., 2000), read-out: Km (CDC25C substrate)).
